In patent US20120088731A1, “METHOD FOR TREATING PARKINSON'S DISEASE THROUGH REGULATING VDAC1 PROTEIN” (SNU R&DB FOUNDATION, priority 2010, published 2012):

What was measured:
Type in all cases: cell-based
[1] = tested on: cultured rat hippocampal neurons transfected with PINK1 shRNA; experiment: Mitochondrial fragmentation in neurons transfected with PINK1 shRNA (immunocytochemistry); details: AA 48 hours, CsA 24 hours, Ru360 24 hours; for dendritic mitochondrial fragmentation induced by knockdown of PINK1 (FIG. 7): VDAC1 shRNA 72 hours transfection, PINK1 shRNA at 13 DIV; for relative number of the neurons containing fragmented mitochondria (FIG. 8): PINK1-knockdowned hippocampal neurons, VDAC1 shRNA 72 hours
[2] = tested on: parkin null mouse mDA neurons; experiment: Synaptic activity (mEPSCs) of parkin null mouse mDA neurons; details: condition same as Experiment 6
Procedure: (§1) Primary mouse DA neuron cultures were prepared from embryonic day (E) 13.5 mouse midbrain of parkin heterogeneous(+/−) and null(−/−) embryos [Neurobasal Media (Invitrogen)].
It was examined whether PINK1-Parkin-VDAC1 pathway regulates the synaptic activity of the mDA neurons. To this end, the frequency and amplitude of miniature excitatory postsynaptic currents (mEPSCs) of parkin heterozygous and null mouse mDA neurons were measured.

[3] = tested on: cultured rat hippocampal neurons transfected with parkin shRNA; experiment: Mitochondrial fragmentation in neurons transfected with parkin shRNA (immunocytochemistry); details: AA 48 hours, CsA 24 hours, Ru360 24 hours; for dendritic mitochondrial fragmentation induced by parkin knockdown (FIG. 4): VDAC1 shRNA 72 hours transfection, parkin shRNA at 13 DIV; for relative numbers of the neurons containing fragmented mitochondria (FIG. 5): parkin-knockdowned hippocampal neurons, VDAC1 shRNA 72 hours
Text: EGFP was used as a fluorescence marker to confirm the transfection of neuron with shRNA vector, and DsRed2-mito [pDsRed2-mito (Clontech)] was used as a fluorescence marker to observe mitochondria in neurons.

[4] = tested on: parkin null mouse mDA neurons; experiment: Mitochondrial defects of parkin null mouse mDA neurons (immunocytochemistry); details: for level of the elongated mitochondria (FIG. 9): parkin null mDA neurons treated for 24 hours, 7 DIV; for relative numbers of the neurons containing fragmented mitochondria (FIG. 10): parkin null mouse mDA neurons, compared to heterozygous littermates
Procedure: as §1

Row | Compound | dendritic mitochondrial fragmentation induced by knockdown of PINK1 (FIG. 7) [1] | relative number of the neurons containing fragmented mitochondria (FIG. 8) [1] | frequency of mEPSCs (FIG. 12a) [2] | dendritic mitochondrial fragmentation induced by parkin knockdown (FIG. 4) [3] | relative numbers of the neurons containing fragmented mitochondria (FIG. 5) [3] | level of the elongated mitochondria (FIG. 9) [4] | relative numbers of the neurons containing fragmented mitochondria (FIG. 10) [4]
1 | C[C@H]1[C@H](C)CC[C@]2(C(=O)O)CC[C@]3(C)C(=CC[C@@H]4[C@@]5(C)C[C@@H](O)[C@H](O)[C@@](C)(CO)[C@@H]5CC[C@]43C)[C@H]12 [AA, asiatic acid] | suppressed the dendritic mitochondrial fragmentation induced by knockdown of PINK1 | prevents dendritic mitochondrial fragmentation in PINK1-knockdowned hippocampal neurons and/or restores the fragmented mitochondria to normal elongated morphology | restored the frequency of mEPSCs up to the level of heterozygotic neurons | suppressed the dendritic mitochondrial fragmentation induced by parkin knockdown | prevents dendritic mitochondrial fragmentation in parkin-knockdowned hippocampal neurons and/or restores the fragmented mitochondria to normal elongated morphology | showed a significantly restored level of the elongated mitochondria | significantly prevented mitochondrial fragmentation in parkin null mouse mDA neurons
2 | Ru360 | suppressed the dendritic mitochondrial fragmentation induced by knockdown of PINK1 | prevents dendritic mitochondrial fragmentation in PINK1-knockdowned hippocampal neurons and/or restores the fragmented mitochondria to normal elongated morphology | restored the frequency of mEPSCs up to the level of heterozygotic neurons | suppressed the dendritic mitochondrial fragmentation induced by parkin knockdown | prevents dendritic mitochondrial fragmentation in parkin-knockdowned hippocampal neurons and/or restores the fragmented mitochondria to normal elongated morphology | showed a significantly restored level of the elongated mitochondria | significantly prevented mitochondrial fragmentation in parkin null mouse mDA neurons
3 | cyclosporine A [CsA] | suppressed the dendritic mitochondrial fragmentation induced by knockdown of PINK1 | – | – | suppressed the dendritic mitochondrial fragmentation induced by parkin knockdown | – | – | –
